Experimental data reported in ChEMBL document CHEMBL1154594, “Delta agonist hydroxy bioisosteres: the discovery of 3-((1-benzylpiperidin-4-yl){4-[(diethylamino)carbonyl]phenyl}amino)benzamide with improved delta agonist activity and in vitro metabolic stability” (Bioorg Med Chem Lett, 2009).

Columns and labels:
[1] = Intrinsic clearance in human liver microsomes; type: ADME, Microsome
[2] = Intrinsic clearance in rat liver microsomes; type: ADME, Microsome

**Q.** Which microsomal CLint [1] does the source give for `CCN(CC)C(=O)c1ccc(N(c2cccc(O)c2)C2CCN(Cc3ccccc3)CC2)cc1` here?
**A.** 286 µL/min/mg

**Q.** And the microsomal CLint [2]?
**A.** 384 µL/min/mg

**Q.** For `CCN(CC)C(=O)c1ccc(N(c2cccc(NC(C)=O)c2)C2CCN(Cc3ccccc3)CC2)cc1`, which microsomal CLint [1] is on record?
**A.** 139 µL/min/mg

**Q.** For `CCN(CC)C(=O)c1ccc(N(c2cccc(NC(=O)OC)c2)C2CCN(Cc3ccccc3)CC2)cc1`, which microsomal CLint [1] is on record?
**A.** 200 µL/min/mg

**Q.** Which results are given for `CCN(CC)C(=O)c1ccc(N(c2cccc(C(N)=O)c2)C2CCN(Cc3ccccc3)CC2)cc1`?
**A.** microsomal CLint [1]: 71 µL/min/mg; microsomal CLint [2]: 62 µL/min/mg

**Q.** Which microsomal CLint [1] does the source give for `CCN(CC)C(=O)c1ccc(N(c2cccc(NS(C)(=O)=O)c2)C2CCN(Cc3ccccc3)CC2)cc1` here?
**A.** 96 µL/min/mg
